The subject of experiment [1] is peripheral blood CD3^+CD4^−CXCR3^+ T cells. Kind of experiment: HNSCC patients, neoadjuvant anti-PD-1: peripheral blood CXCR3+ T cells. Particulars: one week after first dose of nivolumab 240 mg IV, FIG. 13B. In kind it is in vivo, human. The protocol: FIGS. 13A-13D are a series of panels showing change in CXCR3^+ cells in response to checkpoint blockade. […] Peripheral blood was drawn at baseline and one week after anti-PD-1 therapy (nivolumab). Surgery was performed at week six for pathologic assessment. […] Patients are grouped by nodal status following neoadjuvant treatment (ypN). FIGS. 13C and 13D show HPV+ patients from FIG. 13B and HPV-patients from FIG. 13B, respectively. Given the low number of patient(s) with residual nodal disease (ypN+), statistics could not be accurately performed in the HPV+ and HPV− subgroups.
Patients with locoregionally advanced HNSCC were treated with anti-PD-1 (nivolumab, 240 mg, IV) three times Q2W. Radiation was administered following the first anti-PD-1 treatment, and surgery was performed at week 6 to assess pathologic status. Patients also received stereotactic body radiation therapy (SBRT) following the first dose of nivolumab. Peripheral blood was drawn at baseline and one week after administration of the first dose of nivolumab. […] As HPV+ and HPV-HNSCC have marked differences in natural history and/or behavior, these cohorts were also analyzed separately (FIGS. 13C and 13D). When comparing response to neoadjuvant therapy in the HPV+ and HPV− cohorts separately, the change in percent CXCR3^+CD3^+CD4^− T cells was more distinct.

A further experiment deals with CT26 tumors. Kind of experiment: CT26 tumor model: ALK5 inhibitor with chemoradiation (RT+5FU), tumor growth and survival. It is filed as in vivo, mouse. Particulars: FIG. 6B. The protocol:
FIGS. 1A-1D are a series of panels showing that the TGFβR1 antagonist LY2157299 enhances chemo-radiation efficacy dependent on CD8α^+ cells in CT26 tumors. FIG. 1A is a treatment schema in the CT26 tumor model. Six to eight week old BALB/c mice were implanted subcutaneously in the left flank with 2×10^5 CT26 tumor cells. Seven days following implant, animals were randomized based on tumor size, and vehicle control or LY2157299 compound were administered by oral gavage twice daily every 12 hours at 150 mg/kg for 7 consecutive days. At day 14, some mice received five consecutive radiation treatments of 5 Gy targeted to tumor tissue along with 25 mg/kg injections of 5-fluorouracil (5FU) chemotherapy administered intraperitoneally on days 14, 16, and 18. LY treatment groups resumed BID oral dosing from days 21-27. Mean tumor growth (i) and survival (ii) were assessed three times per week up to 100 days or death (FIG. 1B). […] Arrows identify pSMAD2^+CD8^+ cells in vehicle mice. […] NS=not significant, *=p<0.05, **=p<0.01, ***=p<0.001.
(§1) FIGS. 6A-6D are a series of panels showing generation of tumor-specific immune memory following tumor eradication with TGFβ inhibition with chemoradiation. […] The number of mice cured over the total number of mice in each group is indicated in the top right corner. One representative experiment is shown reflective of two independent experiments. Mice who eradicated their tumors were rechallenged with CT26 and 4T1 tumors. CT26 tumor cells were rechallenged on the opposite flank as from the original cured tumor. In FIG. 6D, 4T1 and CT26 tumor establishment and growth was followed for up to 60 days post re-challenge. The number of tumors rejected per total mice rechallenged in each tumor type is indicated in the top right portion of the graph. ***=p<0.001
Animal studies and cell culture: C57BL/6, BALB/c, CD8Cre, Lyz2Cre, and Foxp3-eGFP-CreERT2 mice were purchased from the Jackson Laboratories (Bar Harbor, Maine). ALK5flox/flox mice were a generous gift from Andrew Weinberg (Providence Cancer Center). All transgenic mice were on C57BL/6 background. CT26, MC38, 4T1 and MCA205-OVA tumor cells were grown in DMEM medium supplemented with 10% heat-inactivated fetal bovine serum and 1% penicillin-streptomycin to 60-90% confluence prior to tumor implantation. All cells were washed 2× with 1×PBS and implanted subcutaneously in a 100 μl volume of 1×PBS in the lower flanks. 1×10^5 MC38 cells, 2×10^5 CT26 cells, 5×10^4 4 T1 cells, and 5×10^6 MCA205-OVA cells were used for tumor induction. Tumors were measured 3×/week until they reached the survival end-point of 144 mm^2. […] Following single cell preparation, cells were washed and resuspended in FACS buffer (1×PBS, 1% BSA, 2 mM EDTA) and counted prior to FACS staining using a Guava EasyCyte cytometer (Millipore). […]

Another experiment deals with 4T1 cell line. The experiment is described as follows: Rechallenge of cured mice with 4T1 cells. It is filed as in vivo, mouse. Particulars: cured animals (RT/5-FU/LY3200882), 4T1 implanted simultaneously on opposite flank, FIG. 6C-D.
From the text: as §1
(§2) In order to evaluate whether the improved efficacy of RT+5FU+LY (FIG. 1B) was due to the direct effect of ALK5 inhibition on CD8^+ T cells, LY treatment in ALK5^ΔCD8 mice was tested.

For another experiment, the system named is CT26 cells. Kind of experiment: Rechallenge of cured mice with CT26 cells. In kind it is in vivo, mouse. Particulars: cured animals (RT/5-FU/LY3200882), rechallenge at day 73 post-implant, FIG. 6C-D.
From the text: as §1, §2

Experimental findings from patent publication US12560591B2, “Methods of treatment with CD8 T cell-mediated immune therapy” (Providence Health & Services—Oregon, priority 2019, dated 2026) are described below.

In the case of nivolumab: anti-PD-1 antibody, the “change in peripheral blood CD3^+CD4^−CXCR3^+ T cells vs nodal status” value in experiment [1] was “decrease in CD3^+CD4^−CXCR3^+ T cells following neoadjuvant nivolumab correlated with clearance of nodal disease”.
`CC(C)(O)c1cc(Nc2cc(Oc3cn(C4CC4)nc3C3CCOCC3)ccn2)ccn1` [LY3200882]: the “tumor cures (animals cured of total)” value with CT26 tumors (CT26, LY3200882 with chemoradiation (RT/5-FU)) was 6 of 7. Further, in the experiment with CT26 tumors (CT26, LY3200882 with chemoradiation, p<0.001 vs RT+5FU), the median survival entry is listed as “not reached”. Besides, the tumor rechallenge outcome was “but not the immunologically distinct 4T1 cell line” with 4T1 cell line and “rejected tumor rechallenge” with CT26 cells.
